Test results from article PMC3130629 (Free radical biology & medicine, 2011).

How the values were obtained:
[1] = system: XO bound to BAEC GAGs (endothelial cell-bound XO); experiment: Inhibition of endothelial cell-bound XO, uric acid formation; type: cell-based, bovine; conditions: for Inhibition of endothelial cell GAG-bound XO (uric acid formation): even at concentrations above those tolerated clinically (e.g. 200 μM)
[2] = system: XO bound to BAEC GAGs (endothelial cell-bound XO); experiment: Inhibition of endothelial cell-bound XO, extracellular O2•- by EPR with PPH; type: cell-based, bovine; conditions: xanthine 100 μM, 37°C
XO = conditions: read-out: Ki for XO; pH 8.5; cited from earlier work
[3] = cited from earlier work
xanthine oxidase (XO) = experiment: O2•- formation from reaction of inhibitor with purified XO; type: biochemical; conditions: XO 10 mU/ml; allopurinol 50 μM, febuxostat 100 nM; cytochrome c reduction
[4] = molecular target: xanthine oxidase (XO), free in solution (Bos taurus, UniProt P80457); experiment: Inhibition of XO free in solution, uric acid formation; type: biochemical; conditions: soluble and HS6B-XO, 0.96 and […] vs ref 16
[5] = molecular target: HS6B-XO (GAG-immobilized xanthine oxidase) (Bos taurus, UniProt P80457)
soluble XO = conditions: read-out: Ki, soluble XO; cited from earlier work
GAG-bound XOR = conditions: read-out: Ki, GAG-bound XOR; cited from earlier work

Sequence of xanthine oxidase (XO), free in solution (P80457 whole entry): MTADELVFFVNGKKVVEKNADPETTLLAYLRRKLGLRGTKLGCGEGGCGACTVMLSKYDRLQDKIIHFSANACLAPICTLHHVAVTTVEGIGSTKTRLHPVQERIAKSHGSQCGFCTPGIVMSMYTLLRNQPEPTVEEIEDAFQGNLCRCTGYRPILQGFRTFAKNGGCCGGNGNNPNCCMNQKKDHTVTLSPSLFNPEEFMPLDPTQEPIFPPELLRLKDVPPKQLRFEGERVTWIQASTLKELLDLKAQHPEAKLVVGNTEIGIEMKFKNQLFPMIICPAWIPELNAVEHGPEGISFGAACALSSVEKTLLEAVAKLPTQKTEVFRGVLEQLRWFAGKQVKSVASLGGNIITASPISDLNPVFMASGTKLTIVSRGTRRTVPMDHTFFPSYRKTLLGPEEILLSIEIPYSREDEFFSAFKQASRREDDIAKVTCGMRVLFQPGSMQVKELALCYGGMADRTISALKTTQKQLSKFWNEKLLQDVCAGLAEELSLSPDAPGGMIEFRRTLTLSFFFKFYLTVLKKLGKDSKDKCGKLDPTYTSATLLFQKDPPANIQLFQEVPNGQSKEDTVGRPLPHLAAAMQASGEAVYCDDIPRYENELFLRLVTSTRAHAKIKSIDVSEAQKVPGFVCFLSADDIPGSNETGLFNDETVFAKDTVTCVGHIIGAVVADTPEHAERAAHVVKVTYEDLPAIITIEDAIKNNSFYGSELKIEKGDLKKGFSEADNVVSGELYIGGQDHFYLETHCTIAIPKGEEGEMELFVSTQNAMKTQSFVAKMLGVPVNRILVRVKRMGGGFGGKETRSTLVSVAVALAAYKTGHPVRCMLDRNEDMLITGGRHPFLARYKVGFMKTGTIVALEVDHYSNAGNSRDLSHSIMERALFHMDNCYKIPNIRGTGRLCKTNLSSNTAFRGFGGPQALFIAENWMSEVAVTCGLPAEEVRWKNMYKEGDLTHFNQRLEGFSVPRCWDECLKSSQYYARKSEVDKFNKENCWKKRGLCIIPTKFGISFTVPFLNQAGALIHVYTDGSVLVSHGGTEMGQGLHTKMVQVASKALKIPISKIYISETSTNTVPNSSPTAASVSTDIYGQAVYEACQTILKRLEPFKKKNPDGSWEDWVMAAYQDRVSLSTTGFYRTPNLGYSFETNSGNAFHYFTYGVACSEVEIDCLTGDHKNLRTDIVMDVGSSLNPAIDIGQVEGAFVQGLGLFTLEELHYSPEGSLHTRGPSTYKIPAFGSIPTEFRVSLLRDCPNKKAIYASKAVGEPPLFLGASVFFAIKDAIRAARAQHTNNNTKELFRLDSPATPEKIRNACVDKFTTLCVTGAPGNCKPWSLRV
Sequence of HS6B-XO (GAG-immobilized xanthine oxidase) (P80457 whole entry): as above

| Compound | Inhibition of endothelial cell GAG-bound XO (uric acid formation) [1] | Reduction of cell-bound O2•- radical formation (EPR, PP• radical) ([2]; 200 μM) [%] | Ki (XO) [nM] | Concentrations seen clinically [3] [µM] | O2•- formation on exposure of purified XO to the inhibitor (xanthine oxidase (XO)) | Ki (pH 7.4) higher than previously reported Ki (pH 8.5) [4] | Inhibition of uric acid formation from endothelial cell-bound XO ([1]; 25 nM febuxostat, xanthine 100 μM, 1 h) | Reduction of cell-bound O2•- production (EPR, PP• radical) ([2]; 50 nM) [%] | Concentration giving complete inhibition of uric acid and O2•- production from HS6B-XO [5] [nM] | Cmax ([3]; reported) [µM] | Ki (soluble XO) [nM] | Ki (GAG-bound XOR) [nM] |
| --- | --- | --- | --- | --- | --- | --- | --- | --- | --- | --- | --- | --- |
| Oc1ncnc2[nH]ncc12 [allopurinol] | no more than 80% | 80 | 700 | 20 to 90 | significant O2 ^•- formation | – | – | – | – | – | – | – |
| Cc1nc(-c2ccc(OCC(C)C)c(C#N)c2)sc1C(=O)O [febuxostat] | – | – | 0.12 | – | no detectable O2 ^•- | ~ 8 fold | completely inhibited | 100 | ≤ 50 | 15 | – | – |
| O=c1[nH]c(=O)c2c[nH]nc2[nH]1 [oxypurinol] | no more than 80% | – | – | 20 to 90 | – | – | – | – | – | – | 230 | 405 |
